pEC50: −log10 of the molar value.
Key:
[1] = system: T. thermophila; test: turbidity based T. thermophila cell growth inhibition assay; design: species or system Tetrahymena thermophila; settings: parabulin 50 μM (FIG. 2D)
Source text: Zoom outs showing differences in the Taxane-, Pironetin—and Colchicine-sites between T. thermophila (light grey) and H. sapiens (wheat) tubulin. The three distinct zones of the Colchicine site are highlighted by colored transparent ovals. Amino acid residue differences between human and protozoa tubulin are indicated. […] FIG. 2(C) represents the chemical structures of CA4 and parabulin. The two CA4 rings, denoted A and B, are highlighted as well as the linker (yellow). FIG. 2(D) is a plot showing the time course of T. thermophila cell growth in the presence of CA4 (20 μM) or parabulin (50 μM; error bars corresponding to the standard deviation of triplicate measurements).
To assess the activity of any putative anti parasitic compound, a turbidity based T. thermophila cell growth inhibition assay was put in place in parallel to the efforts to solve T. thermophila MT and tubulin structures.
(§1) To test if parabulin is able to bind to tubulin, its activity was assessed in vitro on dynamic MTs using our TIRF microscopy reconstitution assay. In contrast to the dynamic periods of growth and shrinkage observed for T. thermophila MTs (FIG. 1C), the addition of parabulin led to a striking reduction in the numbers of growth events (FIG. 3A).

[2] = system: Toxoplasma gondii; test: T. gondii plaque assay; format: cell-based; settings: seven days
Experimental: (§2) In order to assess the efficacy of parabulin, T. gondii tachyzoite replication was followed 36 h after addition of parabulin. […] A T. gondii plaque assay was used to determine the concentration at which parasite replication is reduced by half (EC50 value). When confluent fibroblast monolayers were infected with wild-type tachyzoites and left to grow for seven days, lytic parasite growth created visible holes in the vertebrate fibroblast monolayer. Both the plaque numbers and sizes were reduced by parabulin treatment.

[3] = system: human fibroblast cells; test: toxicity assay on cultured human fibroblast cells; format: cell-based; settings: sub-confluent (proliferating) fibroblasts, 72 hours, 25 μM
Experimental: To assess the potential of parabulin as a bona fide anti-parasitic agent, its effects were evaluated on cultures of human cells and growth of the apicomplexan parasite Toxoplasma gondii within human cells. […] CA4 has well-defined anti-mitotic activity due to its disruption of vertebrate MTs.
FIG. 4(A) depicts a toxicity assay showing the effect of parabulin and CA4 on cultured human fibroblast cells.

[4] = target: T1, T. thermophila MTs (Tt-MT) (Tetrahymena thermophila, UniProt P41351+P41352); test: TIRF microscopy MT dynamics reconstitution assay; format: biochemical
T1 construct: it was decided to isolate tubulin dimers from a protozoa organism; from tissue; host or cells: Tetrahymena thermophila cells (native tubulin isolated from the ciliate)
Source text: FIG. 1(D) is a plot of Tt-MT plus-end growth rates as a function of tubulin concentration. Error bars represent the mean +/−95% CI. […] Left: outside view. The α- and β-tubulin monomers are shown in ribbon representation and colored in dark and light gray, respectively. […] Right: tubulin dimer models fitted into a sliced, transparent and zoomed-in view. The paclitaxel structure in stick representation is highlighted in magenta. Lateral contacts between protofilaments are indicated in blue (H2-S3 in α2 and β2), red (H1-S2 in α2 and β2) and green (M loop in α1 and β1).
as §1
FIG. 3(A) is a plot showing the quantification of the Tt-MT growth events in TIRF microscopy MT dynamics reconstitution assays in the presence of the indicated drugs. Error bars represent the mean +/−95% CI. […] Error bars represent the mean +/−95% CI. […] FIG. 3(C) represents the Tt-MT length in the presence of the indicated drugs (40 μM). Error bars represent the mean +/−95% CI.
The average number of growth events per 10-minute movie decreased from 41.3 to 3.8 even though the number of MT seeds immobilized on the cover slide was similar.

[5] = system: Toxoplasma gondii; test: T. gondii tachyzoite replication; format: cell-based; settings: 36 h after addition; controls above 96% eight cell-stage
Experimental: as §2

[6] = drugs 40 μM, one-way ANOVA vs DMSO

T1 sequence (P41352 whole entry): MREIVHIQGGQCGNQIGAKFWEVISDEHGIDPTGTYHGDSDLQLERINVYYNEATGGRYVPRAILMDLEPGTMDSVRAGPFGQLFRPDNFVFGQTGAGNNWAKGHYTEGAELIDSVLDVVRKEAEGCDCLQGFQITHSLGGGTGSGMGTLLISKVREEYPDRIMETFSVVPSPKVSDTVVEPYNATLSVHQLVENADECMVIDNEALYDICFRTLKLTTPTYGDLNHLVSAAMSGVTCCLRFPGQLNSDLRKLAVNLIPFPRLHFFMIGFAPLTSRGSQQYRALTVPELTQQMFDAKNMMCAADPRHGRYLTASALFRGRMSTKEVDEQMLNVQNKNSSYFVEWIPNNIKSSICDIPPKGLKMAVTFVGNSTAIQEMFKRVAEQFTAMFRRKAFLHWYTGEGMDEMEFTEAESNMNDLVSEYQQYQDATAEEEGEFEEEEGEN
T1 sequence (P41351 whole entry): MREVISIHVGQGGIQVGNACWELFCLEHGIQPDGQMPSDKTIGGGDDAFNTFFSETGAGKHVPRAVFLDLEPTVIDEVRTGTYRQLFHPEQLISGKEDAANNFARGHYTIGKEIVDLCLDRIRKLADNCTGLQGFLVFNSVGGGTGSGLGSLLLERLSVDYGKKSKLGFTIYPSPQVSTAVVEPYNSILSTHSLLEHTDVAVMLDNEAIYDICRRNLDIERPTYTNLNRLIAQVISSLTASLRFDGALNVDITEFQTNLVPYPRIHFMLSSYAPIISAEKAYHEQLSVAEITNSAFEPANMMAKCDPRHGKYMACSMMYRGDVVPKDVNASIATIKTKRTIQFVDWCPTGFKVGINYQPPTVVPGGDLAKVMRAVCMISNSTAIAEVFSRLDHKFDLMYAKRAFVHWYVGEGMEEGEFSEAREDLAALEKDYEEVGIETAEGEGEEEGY

SMILES	T. thermophila cell growth [1]	pEC50 ([2]; Toxoplasma gondii, 168 h, confluent fibroblast monolayers, wild-type tachyzoites, read-out: EC50 (plaque area relative to control))	plaque numbers and sizes [2]	cell survival [3]	average number of growth events per 10-minute movie ([4]; Tt-MT, control (DMSO) 41.3, similar number of MT seeds)	Tt-MT growth length vs control [4, 6]	Tt-MT growth rate vs control [4, 6]	eight cell-stage parasites (replication) [5]
COc1ccc(C=CC(=O)NCc2cc(OC)c(OC)c(OC)c2)cc1OC [parabulin, 3-(3,4-dimethoxyphenyl)-N-[(3,4,5-trimethoxyphenyl)methyl]prop-2-enamide]	inhibited T. thermophila cell growth	5.19	reduced	99%	3.8	no significant differences	no significant differences	no eight cell-stage observed
COc1ccc(/C=C\c2cc(OC)c(OC)c(OC)c2)cc1O [CA4, Combretastatin A4, reference compound]	–	–	–	46%	–	–	–	–

Reference: patent US12648918B2, “Use of parabulin for targeting protozoan tubulin for the inhibition of protozoan replication” (Paul Scherrer Institut, priority 2020, dated 2026)
